Tests used:
[1] = system: Tyrosine-protein kinase ABL1 (Homo sapiens), P00519 [T315I]; assay: Inhibition of T7 bacteriophage fused human phosphorylated ABL1 T315I mutant at 10 uM by KINOMEscan analysis relative to control
[2] = target: Atypical kinase COQ8B, mitochondrial (Homo sapiens) (UniProt Q96D53); assay: Inhibition of T7 bacteriophage fused human ADCK4 at 10 uM by KINOMEscan analysis relative to control
[3] = target: RAC-alpha serine/threonine-protein kinase (Homo sapiens) (UniProt P31749); assay: Inhibition of T7 bacteriophage fused human AKT1 at 10 uM by KINOMEscan analysis relative to control
RAC-alpha serine/threonine-protein kinase (Homo sapiens), sequence (P31749 whole entry, the tested form may be a part): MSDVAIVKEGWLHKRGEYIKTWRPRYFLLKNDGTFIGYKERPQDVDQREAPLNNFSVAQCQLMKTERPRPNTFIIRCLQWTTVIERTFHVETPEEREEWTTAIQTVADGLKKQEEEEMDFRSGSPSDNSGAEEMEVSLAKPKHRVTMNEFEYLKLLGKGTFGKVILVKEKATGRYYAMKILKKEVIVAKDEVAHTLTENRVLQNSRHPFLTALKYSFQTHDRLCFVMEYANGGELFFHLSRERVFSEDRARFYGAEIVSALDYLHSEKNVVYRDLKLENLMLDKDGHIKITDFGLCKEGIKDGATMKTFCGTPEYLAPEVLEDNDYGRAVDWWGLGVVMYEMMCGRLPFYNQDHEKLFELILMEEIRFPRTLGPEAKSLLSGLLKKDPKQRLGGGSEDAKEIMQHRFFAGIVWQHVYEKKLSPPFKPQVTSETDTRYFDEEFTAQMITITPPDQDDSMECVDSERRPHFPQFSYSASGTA

[4] = target: NUAK family SNF1-like kinase 1 (Homo sapiens) (UniProt O60285); assay: Inhibition of T7 bacteriophage fused human ARK5 at 10 uM by KINOMEscan analysis relative to control
[5] = target: Bone morphogenetic protein receptor type-1B (Homo sapiens) (UniProt O00238); assay: Inhibition of T7 bacteriophage fused human BMPR1B at 10 uM by KINOMEscan analysis relative to control
[6] = target: Bone morphogenetic protein receptor type-2 (Homo sapiens) (UniProt Q13873); assay: Inhibition of T7 bacteriophage fused human BMPR2 at 10 uM by KINOMEscan analysis relative to control
Bone morphogenetic protein receptor type-2 (Homo sapiens), sequence (Q13873 whole entry, the tested form may be a part): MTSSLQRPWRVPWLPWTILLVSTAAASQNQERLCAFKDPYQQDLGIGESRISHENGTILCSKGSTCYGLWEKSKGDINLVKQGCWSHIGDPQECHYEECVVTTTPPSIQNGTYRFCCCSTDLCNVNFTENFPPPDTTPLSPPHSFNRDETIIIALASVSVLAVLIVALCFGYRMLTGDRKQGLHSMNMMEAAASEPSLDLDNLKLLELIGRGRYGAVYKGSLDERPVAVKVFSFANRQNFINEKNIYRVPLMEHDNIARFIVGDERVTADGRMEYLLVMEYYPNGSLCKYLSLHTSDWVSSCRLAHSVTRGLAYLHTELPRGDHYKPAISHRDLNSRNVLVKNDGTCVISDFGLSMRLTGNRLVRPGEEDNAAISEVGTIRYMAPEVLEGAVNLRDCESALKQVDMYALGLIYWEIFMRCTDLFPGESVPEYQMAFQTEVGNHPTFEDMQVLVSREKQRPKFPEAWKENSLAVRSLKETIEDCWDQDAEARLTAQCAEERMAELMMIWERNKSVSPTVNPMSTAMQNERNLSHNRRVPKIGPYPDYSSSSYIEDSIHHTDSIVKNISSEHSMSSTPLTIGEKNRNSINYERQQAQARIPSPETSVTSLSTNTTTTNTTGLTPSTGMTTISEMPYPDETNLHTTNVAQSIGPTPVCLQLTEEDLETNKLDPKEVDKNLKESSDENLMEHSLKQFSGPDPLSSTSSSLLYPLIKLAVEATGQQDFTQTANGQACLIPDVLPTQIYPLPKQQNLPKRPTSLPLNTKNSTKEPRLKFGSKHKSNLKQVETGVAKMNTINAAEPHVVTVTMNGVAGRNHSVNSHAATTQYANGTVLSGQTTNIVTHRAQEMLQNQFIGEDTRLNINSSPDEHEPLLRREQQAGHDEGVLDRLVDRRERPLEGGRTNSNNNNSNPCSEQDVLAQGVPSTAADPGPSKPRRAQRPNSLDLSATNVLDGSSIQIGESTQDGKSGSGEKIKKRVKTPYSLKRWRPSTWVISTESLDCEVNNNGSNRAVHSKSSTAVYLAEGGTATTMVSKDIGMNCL

[7] = target: Calcium/calmodulin-dependent protein kinase type 1D (Homo sapiens) (UniProt Q8IU85); assay: Inhibition of T7 bacteriophage fused human CAMK1D at 10 uM by KINOMEscan analysis relative to control
Calcium/calmodulin-dependent protein kinase type 1D (Homo sapiens), sequence (Q8IU85 whole entry, looked up, the tested form may be a part): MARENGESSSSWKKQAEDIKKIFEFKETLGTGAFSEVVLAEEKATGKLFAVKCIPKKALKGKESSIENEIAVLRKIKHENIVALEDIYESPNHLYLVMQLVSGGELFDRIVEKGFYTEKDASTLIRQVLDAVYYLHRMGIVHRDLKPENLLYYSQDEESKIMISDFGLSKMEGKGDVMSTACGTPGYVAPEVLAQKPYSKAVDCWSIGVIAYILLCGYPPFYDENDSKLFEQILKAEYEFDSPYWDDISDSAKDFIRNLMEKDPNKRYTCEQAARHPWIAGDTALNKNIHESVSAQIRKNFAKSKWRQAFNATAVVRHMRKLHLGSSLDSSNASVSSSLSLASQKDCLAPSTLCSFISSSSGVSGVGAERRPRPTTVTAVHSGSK

[8] = target: Calcium/calmodulin-dependent protein kinase type 1G (Homo sapiens) (UniProt Q96NX5); assay: Inhibition of T7 bacteriophage fused human CAMK1G at 10 uM by KINOMEscan analysis relative to control
[9] = target: Calcium/calmodulin-dependent protein kinase type II subunit delta (Homo sapiens) (UniProt Q13557); assay: Inhibition of T7 bacteriophage fused human CAMK2D at 10 uM by KINOMEscan analysis relative to control
[10] = target: Cyclin-dependent kinase 2 (Homo sapiens) (UniProt P24941); assay: Inhibition of T7 bacteriophage fused human CDK2 at 10 uM by KINOMEscan analysis relative to control
[11] = target: Vascular endothelial growth factor receptor 1 (Homo sapiens) (UniProt P17948); assay: Inhibition of T7 bacteriophage fused human FLT1 at 10 uM by KINOMEscan analysis relative to control
[12] = system: Receptor-type tyrosine-protein kinase FLT3 (Homo sapiens), P36888 [D835Y]; assay: Inhibition of T7 bacteriophage fused human FLT3 D835Y mutant at 10 uM by KINOMEscan analysis relative to control
[13] = target: Tyrosine-protein kinase Fyn (Homo sapiens) (UniProt P06241); assay: Inhibition of T7 bacteriophage fused human FYN at 10 uM by KINOMEscan analysis relative to control
[14] = target: Hormonally up-regulated neu tumor-associated kinase (Homo sapiens) (UniProt P57058); assay: Inhibition of T7 bacteriophage fused human HUNK at 10 uM by KINOMEscan analysis relative to control
[15] = system: Mast/stem cell growth factor receptor Kit (Homo sapiens), P10721 [V559D]; assay: Inhibition of T7 bacteriophage fused human KIT V559D mutant at 10 uM by KINOMEscan analysis relative to control
[16] = target: Mitogen-activated protein kinase kinase kinase kinase 2 (Homo sapiens) (UniProt Q12851); assay: Inhibition of T7 bacteriophage fused human MAP4K2 at 10 uM by KINOMEscan analysis relative to control
[17] = target: Dual specificity mitogen-activated protein kinase kinase 4 (Homo sapiens) (UniProt P45985); assay: Inhibition of T7 bacteriophage fused human MEK4 at 10 uM by KINOMEscan analysis relative to control
Dual specificity mitogen-activated protein kinase kinase 4 (Homo sapiens), sequence (P45985 whole entry, the tested form may be a part): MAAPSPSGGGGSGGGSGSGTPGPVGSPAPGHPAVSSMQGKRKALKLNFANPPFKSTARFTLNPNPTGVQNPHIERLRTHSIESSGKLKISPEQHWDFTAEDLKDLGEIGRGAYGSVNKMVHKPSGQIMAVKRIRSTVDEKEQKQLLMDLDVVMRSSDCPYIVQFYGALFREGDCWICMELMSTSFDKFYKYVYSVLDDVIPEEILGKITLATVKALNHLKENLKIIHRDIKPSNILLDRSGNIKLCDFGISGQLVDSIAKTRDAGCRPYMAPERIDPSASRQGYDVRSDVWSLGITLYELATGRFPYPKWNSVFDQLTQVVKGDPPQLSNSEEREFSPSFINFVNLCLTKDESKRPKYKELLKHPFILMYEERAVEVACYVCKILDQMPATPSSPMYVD

[18] = target: Mitogen-activated protein kinase kinase kinase 10 (Homo sapiens) (UniProt Q02779); assay: Inhibition of T7 bacteriophage fused human MLK2 at 10 uM by KINOMEscan analysis relative to control
[19] = target: Serine/threonine-protein kinase Nek3 (Homo sapiens) (UniProt P51956); assay: Inhibition of T7 bacteriophage fused human NEK3 at 10 uM by KINOMEscan analysis relative to control
Serine/threonine-protein kinase Nek3 (Homo sapiens), sequence (P51956 whole entry, the tested form may be a part): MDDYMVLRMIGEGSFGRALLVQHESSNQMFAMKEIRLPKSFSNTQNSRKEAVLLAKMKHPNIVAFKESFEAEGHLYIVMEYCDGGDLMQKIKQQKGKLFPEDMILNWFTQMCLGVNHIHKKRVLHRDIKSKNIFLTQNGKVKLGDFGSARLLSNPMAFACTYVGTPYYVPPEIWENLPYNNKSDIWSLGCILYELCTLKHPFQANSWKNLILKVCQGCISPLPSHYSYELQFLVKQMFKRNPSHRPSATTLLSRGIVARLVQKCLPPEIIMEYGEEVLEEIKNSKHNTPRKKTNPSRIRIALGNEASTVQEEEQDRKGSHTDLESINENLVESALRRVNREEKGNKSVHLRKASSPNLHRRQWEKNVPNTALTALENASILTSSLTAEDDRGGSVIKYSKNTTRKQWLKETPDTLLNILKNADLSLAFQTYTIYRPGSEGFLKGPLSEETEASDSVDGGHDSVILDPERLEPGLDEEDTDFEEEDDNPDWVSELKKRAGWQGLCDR

[20] = target: Serine/threonine-protein kinase Nek5 (Homo sapiens) (UniProt Q6P3R8); assay: Inhibition of T7 bacteriophage fused human NEK5 at 10 uM by KINOMEscan analysis relative to control
[21] = target: Phosphatidylinositol 4,5-bisphosphate 3-kinase catalytic subunit beta isoform (Homo sapiens) (UniProt P42338); assay: Inhibition of T7 bacteriophage fused human PIK3CB at 10 uM by KINOMEscan analysis relative to control
[22] = target: Serine/threonine-protein kinase PLK4 (Homo sapiens) (UniProt O00444); assay: Inhibition of T7 bacteriophage fused human PLK4 at 10 uM by KINOMEscan analysis relative to control
[23] = target: Receptor-interacting serine/threonine-protein kinase 2 (Homo sapiens) (UniProt O43353); assay: Inhibition of T7 bacteriophage fused human RIPK2 at 10 uM by KINOMEscan analysis relative to control
Receptor-interacting serine/threonine-protein kinase 2 (Homo sapiens), sequence (O43353 whole entry, the tested form may be a part): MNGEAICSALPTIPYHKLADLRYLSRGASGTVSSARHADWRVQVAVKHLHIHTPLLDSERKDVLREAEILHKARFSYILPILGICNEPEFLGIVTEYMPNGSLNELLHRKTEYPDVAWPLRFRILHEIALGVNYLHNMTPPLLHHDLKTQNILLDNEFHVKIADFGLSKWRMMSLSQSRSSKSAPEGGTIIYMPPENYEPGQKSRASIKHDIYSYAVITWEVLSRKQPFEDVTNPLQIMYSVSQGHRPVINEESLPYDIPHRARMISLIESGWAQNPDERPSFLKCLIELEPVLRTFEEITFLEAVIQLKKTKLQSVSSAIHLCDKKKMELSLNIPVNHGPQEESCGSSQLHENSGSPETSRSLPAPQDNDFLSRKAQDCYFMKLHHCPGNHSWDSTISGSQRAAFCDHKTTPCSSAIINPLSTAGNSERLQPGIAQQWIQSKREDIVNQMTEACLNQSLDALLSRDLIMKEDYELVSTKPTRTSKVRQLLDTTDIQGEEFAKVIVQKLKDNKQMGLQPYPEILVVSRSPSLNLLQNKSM

[24] = target: Ribosomal protein S6 kinase alpha-6 (Homo sapiens) (UniProt Q9UK32); assay: Inhibition of T7 bacteriophage fused human C-terminal RSK4 Kinase domain-2 at 10 uM by KINOMEscan analysis relative to control
[25] = target: Serine/threonine-protein kinase 25 (Homo sapiens) (UniProt O00506); assay: Inhibition of T7 bacteriophage fused human YSK1 at 10 uM by KINOMEscan analysis relative to control
[26] = target: Citron Rho-interacting kinase (Homo sapiens) (UniProt O14578); assay: Inhibition of T7 bacteriophage fused human CIT at 10 uM by KINOMEscan analysis relative to control; values are per cent of control
[27] = target: Epidermal growth factor receptor (Homo sapiens) (UniProt P00533); assay: Inhibition of T7 bacteriophage fused human EGFR at 10 uM by KINOMEscan analysis relative to control; values are per cent of control
[28] = target: Serine/threonine-protein kinase Nek1 (Homo sapiens) (UniProt Q96PY6); assay: Inhibition of T7 bacteriophage fused human NEK1 at 10 uM by KINOMEscan analysis relative to control; values are per cent of control
[29] = target: Serine/threonine-protein kinase Nek4 (Homo sapiens) (UniProt P51957); assay: Inhibition of T7 bacteriophage fused human NEK4 at 10 uM by KINOMEscan analysis relative to control; values are per cent of control
[30] = target: Glycogen synthase kinase-3 beta (Homo sapiens) (UniProt P49841); assay: Inhibition of T7 bacteriophage fused human GSK3B at 10 uM by KINOMEscan analysis relative to control; values are per cent of control
Glycogen synthase kinase-3 beta (Homo sapiens), sequence (P49841 whole entry, looked up, the tested form may be a part): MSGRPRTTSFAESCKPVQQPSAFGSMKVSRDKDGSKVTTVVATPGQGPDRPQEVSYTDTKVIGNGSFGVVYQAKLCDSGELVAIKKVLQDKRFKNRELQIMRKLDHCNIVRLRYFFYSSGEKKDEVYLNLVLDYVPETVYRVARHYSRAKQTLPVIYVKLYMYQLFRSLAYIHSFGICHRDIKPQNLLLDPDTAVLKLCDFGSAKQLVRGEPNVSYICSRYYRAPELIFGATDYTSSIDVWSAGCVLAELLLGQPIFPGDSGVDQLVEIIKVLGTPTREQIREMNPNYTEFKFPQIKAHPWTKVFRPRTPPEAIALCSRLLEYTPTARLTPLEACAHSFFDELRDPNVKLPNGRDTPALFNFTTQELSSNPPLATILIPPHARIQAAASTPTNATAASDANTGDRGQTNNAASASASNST

[31] = target: Tyrosine-protein kinase JAK2 (Homo sapiens) (UniProt O60674); assay: Inhibition of T7 bacteriophage fused human JAK2 JH1catalytic domain at 10 uM by KINOMEscan analysis relative to control; values are per cent of control
Tyrosine-protein kinase JAK2 (Homo sapiens), sequence (O60674 whole entry, the tested form may be a part): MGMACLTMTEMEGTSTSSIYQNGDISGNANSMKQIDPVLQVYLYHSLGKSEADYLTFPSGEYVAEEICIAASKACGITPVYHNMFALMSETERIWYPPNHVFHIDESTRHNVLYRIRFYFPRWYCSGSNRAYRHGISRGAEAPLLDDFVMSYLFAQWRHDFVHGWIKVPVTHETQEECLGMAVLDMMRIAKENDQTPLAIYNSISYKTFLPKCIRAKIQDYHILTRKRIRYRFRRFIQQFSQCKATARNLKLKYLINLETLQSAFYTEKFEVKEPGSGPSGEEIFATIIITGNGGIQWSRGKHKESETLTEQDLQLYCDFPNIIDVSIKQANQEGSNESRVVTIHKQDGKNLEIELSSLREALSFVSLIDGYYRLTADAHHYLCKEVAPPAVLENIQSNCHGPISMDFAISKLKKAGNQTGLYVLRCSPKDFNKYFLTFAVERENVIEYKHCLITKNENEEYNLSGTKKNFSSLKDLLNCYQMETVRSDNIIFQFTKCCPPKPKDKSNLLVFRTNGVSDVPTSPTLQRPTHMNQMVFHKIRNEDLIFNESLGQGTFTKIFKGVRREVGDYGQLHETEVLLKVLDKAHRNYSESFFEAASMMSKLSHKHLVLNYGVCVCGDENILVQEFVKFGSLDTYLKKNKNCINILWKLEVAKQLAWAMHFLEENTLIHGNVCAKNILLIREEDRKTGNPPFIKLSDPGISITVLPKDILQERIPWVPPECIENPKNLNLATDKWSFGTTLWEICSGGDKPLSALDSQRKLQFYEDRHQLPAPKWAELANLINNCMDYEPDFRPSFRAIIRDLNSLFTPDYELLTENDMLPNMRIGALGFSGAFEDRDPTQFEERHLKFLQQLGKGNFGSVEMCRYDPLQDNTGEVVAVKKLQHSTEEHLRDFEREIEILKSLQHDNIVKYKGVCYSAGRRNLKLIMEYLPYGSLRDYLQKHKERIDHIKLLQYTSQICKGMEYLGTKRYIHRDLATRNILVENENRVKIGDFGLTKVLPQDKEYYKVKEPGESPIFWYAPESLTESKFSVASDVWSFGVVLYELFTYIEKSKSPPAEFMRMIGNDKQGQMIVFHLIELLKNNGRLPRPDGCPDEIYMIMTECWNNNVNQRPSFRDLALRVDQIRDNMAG

COc1cc(N2CCC(N3CCN(C)CC3)CC2)ccc1Nc1ncc2c(n1)N(C)c1ccccc1C(=O)N2C
inhibition [1]: 58%
inhibition [2]: 94%
inhibition [3]: 79%
inhibition [4]: 47%
inhibition [5]: 76%
inhibition [6]: 100%
inhibition [7]: 69%
inhibition [8]: 74%
inhibition [9]: 28%
inhibition [10]: 100%
inhibition [11]: 100%
inhibition [12]: 100%
inhibition [13]: 100%
inhibition [14]: 100%
inhibition [15]: 100%
inhibition [16]: 100%
inhibition [17]: 100%
inhibition [18]: 100%
inhibition [19]: 100%
inhibition [20]: 100%
inhibition [21]: 96%
inhibition [22]: 0%
inhibition [23]: 100%
inhibition [24]: 2.2%
inhibition [25]: 68%
residual activity [26]: 99%
residual activity [27]: 84%
residual activity [28]: 83%
residual activity [29]: 95%
residual activity [30]: 88%
residual activity [31]: 70%

From ChEMBL document CHEMBL5678810
